The assay deals with full-length USP7 (Homo sapiens (Human), UniProt Q93009). Nature of the assay: Enzymatic assay to determine IC50 of USP7 inhibitors (Ubiquitin-Rhodamine 110 cleavage). In kind it is biochemical. The conditions noted are these: for inhibition at 1 µM: read-out: percent value of inhibition of USP7 activity; for IC50: 0.5 nM USP7, 0.5 μM Ubiquitin-Rhodamine 110, 45 min at 37° C. In a few lines: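 Enzyme: 0.5 nM full-length USP7 in HEPES pH 7.5 buffer with NaCl, DTT, BSA and Tween20, given 15 min at room temperature with DTT before compounds were added.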

Setting [1] is: at 1 μM of the test compound, given where IC50 not determined yet.

Structures can show the parent of a compound that is named as a salt. Where two headings read alike, the source gives them in different places. Bounds are passed on as bounds.

The text below walks through data of patent US12404279B2, “Deubiquitinase inhibitors and methods of use thereof” (Molecure S.A., priority 2021, dated 2025).

Sequence of full-length USP7 (Q93009 whole entry): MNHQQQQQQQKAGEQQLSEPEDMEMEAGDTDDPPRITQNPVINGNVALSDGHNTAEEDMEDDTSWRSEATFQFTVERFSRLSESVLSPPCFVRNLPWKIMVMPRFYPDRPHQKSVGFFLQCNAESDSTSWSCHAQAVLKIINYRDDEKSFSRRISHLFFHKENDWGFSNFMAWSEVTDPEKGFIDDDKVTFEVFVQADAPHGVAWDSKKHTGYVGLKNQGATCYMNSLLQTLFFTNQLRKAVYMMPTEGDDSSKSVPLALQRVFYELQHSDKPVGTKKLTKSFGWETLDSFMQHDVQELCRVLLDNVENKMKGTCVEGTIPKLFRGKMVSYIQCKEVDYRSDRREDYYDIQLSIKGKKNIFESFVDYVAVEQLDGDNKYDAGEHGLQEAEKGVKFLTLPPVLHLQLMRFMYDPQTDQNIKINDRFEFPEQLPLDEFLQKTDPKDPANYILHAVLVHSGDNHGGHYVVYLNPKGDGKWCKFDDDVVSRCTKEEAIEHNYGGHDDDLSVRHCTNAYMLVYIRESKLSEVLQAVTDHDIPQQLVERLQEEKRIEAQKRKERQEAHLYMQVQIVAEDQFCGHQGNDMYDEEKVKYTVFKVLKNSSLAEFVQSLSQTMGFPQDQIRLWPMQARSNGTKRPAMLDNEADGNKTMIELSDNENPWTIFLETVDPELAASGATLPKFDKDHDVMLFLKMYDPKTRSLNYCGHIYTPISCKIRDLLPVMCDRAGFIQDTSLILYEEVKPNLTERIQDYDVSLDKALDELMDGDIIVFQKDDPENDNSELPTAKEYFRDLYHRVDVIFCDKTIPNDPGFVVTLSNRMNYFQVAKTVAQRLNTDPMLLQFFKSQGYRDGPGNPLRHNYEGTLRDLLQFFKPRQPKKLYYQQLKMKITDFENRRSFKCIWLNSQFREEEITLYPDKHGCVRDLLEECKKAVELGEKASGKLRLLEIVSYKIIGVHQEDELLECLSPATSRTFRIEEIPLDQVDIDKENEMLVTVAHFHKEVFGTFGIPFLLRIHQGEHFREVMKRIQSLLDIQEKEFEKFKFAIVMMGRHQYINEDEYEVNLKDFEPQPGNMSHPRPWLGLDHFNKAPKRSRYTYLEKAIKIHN

By inhibition is commonly meant the percentage by which the read-out fell short of the control. For the molecule `Cc1cc(C(F)(F)F)nc(-c2ccnc3cc(CN4C(=O)C5C(C4=O)C5(C)C)sc23)c1CN1CCCC1=O` (centres unmarked) [Example 39, 6,6-dimethyl-3-((7-(4-methyl-3-((2-oxopyrrolidin-1-yl)methyl)-6-(trifluoromethyl)pyridin-2-yl)thieno[3,2-b]pyridin-2-yl)methyl)-3-azabicyclo[3.1.0]hexane-2,4-dione dihydrochloride], the inhibition at 1 µM under setting [1] was in the range of 20 to 49%.

A word on the IC50: it is the point on the concentration scale where inhibition reaches its midpoint. The molecule `Cc1cc(Cl)nc(-c2ccnc3cc(CN4C(=O)C5C(C4=O)C5(C)C)sc23)c1NC1CC(F)(F)C1` (centres unmarked) [Example 123, 3-((7-(6-chloro-3-((3,3-difluorocyclobutyl)amino)-4-methylpyridin-2-yl)thieno[3,2-b]pyridin-2-yl)methyl)-6,6-dimethyl-3-azabicyclo[3.1.0]hexane-2,4-dione 2,2,2-trifluoroacetate] registered an IC50 of 500 to 1000 nM.

Consider `Cc1ccnc(-c2ccnc3cc(CN4C(=O)C5C(C4=O)C5(C)C)sc23)c1C(=O)N1CCNCC1` (centres unmarked) [Example 45, 6,6-dimethyl-3-((7-(4-methyl-3-(piperazine-1-carbonyl)pyridin-2-yl)thieno[3,2-b]pyridin-2-yl)methyl)-3-azabicyclo[3.1.0]hexane-2,4-dione hydrochloride], for which the inhibition at 1 µM under setting [1] was less than 20%.

`Cc1nc(C(F)(F)F)cc(-c2ccnc3cc(CN4C(=O)C5C(C4=O)C5(C)C)sc23)c1CN1CC(F)(F)C1` (centres unmarked) [Example 103, 3-((7-(3-((3,3-difluoroazetidin-1-yl)methyl)-2-methyl-6-(trifluoromethyl)pyridin-4-yl)thieno[3,2-b]pyridin-2-yl)methyl)-6,6-dimethyl-3-azabicyclo[3.1.0]hexane-2,4-dione 2,2,2-trifluoroacetate] gave a concentration for half-maximal inhibition (IC50) of 1000 to 10000 nM.

For the molecule `Cc1cc(C(F)(F)F)nc(-c2ccnc3cc(CN4C(=O)C5C(C4=O)C5(C)C)sc23)c1CN1CC[C@@H]2CNC[C@@H]21` (stereo partly drawn) [Example 153, 3-((7-(3-(((3aR,6aR)-hexahydropyrrolo[3,4-b]pyrrol-1(2H)-yl)methyl)-4-methyl-6-(trifluoromethyl)pyridin-2-yl)thieno[3,2-b]pyridin-2-yl)methyl)-6,6-dimethyl-3-azabicyclo[3.1.0]hexane-2,4-dione trihydrochloride], the IC50 is less than 500 nM.

As for `Cc1ccnc(-c2ccnc3cc(CN4C(=O)C5C(C4=O)C5(C)C)sc23)c1CN1CCNCC1` (centres unmarked) [Example 46, 6,6-dimethyl-3-((7-(4-methyl-3-(piperazin-1-ylmethyl)pyridin-2-yl)thieno[3,2-b]pyridin-2-yl)methyl)-3-azabicyclo[3.1.0]hexane-2,4-dione hydrochloride], the inhibition at 1 µM under setting [1] is less than 20%.

Turning to `Cc1nc(C#N)cc(-c2ccnc3cc(CN4C(=O)C5C(C4=O)C5(C)C)sc23)c1C(=O)N1CC(F)(F)C1` (centres unmarked) [Example 19, 5-(3,3-difluoroazetidine-1-carbonyl)-4-(2-((6,6-dimethyl-2,4-dioxo-3-azabicyclo[3.1.0]hexan-3-yl)methyl)thieno[3,2-b]pyridin-7-yl)-6-methylpicolinonitrile 2,2,2-trifluoroacetate], the 50% inhibitory concentration (IC50) lay in the range of 500 to 1000 nM.

`Cc1cc(C(F)(F)F)nc(-c2ccnc3cc(CN4C(=O)C5C(C4=O)C5(C)C)sc23)c1CN1CCNCC1=O` (centres unmarked) [Example 40, 6,6-dimethyl-3-((7-(4-methyl-3-((2-oxopiperazin-1-yl)methyl)-6-(trifluoromethyl)pyridin-2-yl)thieno[3,2-b]pyridin-2-yl)methyl)-3-azabicyclo[3.1.0]hexane-2,4-dione dihydrochloride]: under setting [1], the inhibition at 1 µM lay in the range of 20 to 49%.

“ethyl 5-(2-((6,6-dimethyl-2,4-dioxo-3-azabicyclo[3.1.0]hexan-3-yl)methyl)thieno[3,2-b]pyridin-7-yl)-2-methyl-1-(((S)-morpholin-2-yl)methyl)-1H-pyrrole-3-carboxylate 2,2,2-trifluoroacetate [Example 148]” returned a half-inhibitory concentration (IC50) of 1000 to 10000 nM.

For `Cc1cc(C(F)(F)F)nc(-c2ccnc3cc(CN4C(=O)C5C(C4=O)C5(C)C)sc23)c1CN1CC[C@@H]2CNC[C@@H]21` (stereo partly drawn) [Example 159, 3-((7-(3-(((3aR,6aR)-hexahydropyrrolo[3,4-b]pyrrol-1(2H)-yl)methyl)-4-methyl-6-(trifluoromethyl)pyridin-2-yl)thieno[3,2-b]pyridin-2-yl)methyl)-6,6-dimethyl-3-azabicyclo[3.1.0]hexane-2,4-dione trihydrochloride], the IC50 is less than 500 nM.

With `Cc1cc(C#N)nc(-c2ccnc3cc(CN4C(=O)C5C(C4=O)C5(C)C)sc23)c1C(=O)NC1CC(F)(F)C1` (centres unmarked) [Example 57, 6-cyano-N-(3,3-difluorocyclobutyl)-2-(2-((6,6-dimethyl-2,4-dioxo-3-azabicyclo[3.1.0]hexan-3-yl)methyl)thieno[3,2-b]pyridin-7-yl)-4-methylnicotinamide hydrochloride], the inhibition at 1 µM under setting [1] was less than 20%.

Turning to `Cc1cc(C#N)nc(-c2ccnc3cc(CN4C(=O)C5C(C4=O)C5(C)C)sc23)c1C(=O)N1CCN(C)C[C@@H]1C` (stereo partly drawn) [Example 52, 6-(2-((6,6-dimethyl-2,4-dioxo-3-azabicyclo[3.1.0]hexan-3-yl)methyl)thieno[3,2-b]pyridin-7-yl)-5-((S)-2,4-dimethylpiperazine-1-carbonyl)-4-methylpicolinonitrile dihydrochloride], the IC50 is less than 500 nM.

Molecule `Cc1nc(C(F)(F)F)cc(-c2ccnc3cc(CN4C(=O)C5C(C4=O)C5(C)C)sc23)c1O[C@H]1CCCNC1` (stereo partly drawn) [Example 23, 6,6-dimethyl-3-((7-(2-methyl-3-(((S)-piperidin-3-yl)oxy)-6-(trifluoromethyl)pyridin-4-yl)thieno[3,2-b]pyridin-2-yl)methyl)-3-azabicyclo[3.1.0]hexane-2,4-dione 2,2,2-trifluoroacetate] gave a half-maximal inhibitory concentration (IC50) of less than 500 nM.

For `Cc1nc(C(F)(F)F)cc(-c2ccnc3cc(CN4C(=O)C5C(C4=O)C5(C)C)sc23)c1NC(=O)C(F)(F)F` (centres unmarked) [Example 62, N-(4-(2-((6,6-dimethyl-2,4-dioxo-3-azabicyclo[3.1.0]hexan-3-yl)methyl)thieno[3,2-b]pyridin-7-yl)-2-methyl-6-(trifluoromethyl)pyridin-3-yl)-2,2,2-trifluoroacetamide 2,2,2-trifluoroacetate], the IC50 lay in the range of 1000 to 10000 nM.

In turn, `Cc1nc(C#N)cc(-c2ccnc3cc(CN4C(=O)C5C(C4=O)C5(C)C)sc23)c1C(=O)N1CCNCC1` (centres unmarked) [Example 17, 4-(2-((6,6-dimethyl-2,4-dioxo-3-azabicyclo[3.1.0]hexan-3-yl)methyl)thieno[3,2-b]pyridin-7-yl)-6-methyl-5-(piperazine-1-carbonyl)picolinonitrile hydrochloride] gave a 50% inhibitory concentration (IC50) of 500 to 1000 nM.

Consider `Cc1cc(C(F)(F)F)nc(-c2ccnc3cc(CN4C(=O)C5C(C4=O)C5(C)C)sc23)c1C(=O)N1CC[C@H](C(C)N)C1` (stereo partly drawn) [Example 138, 3-((7-(3-((3S)-3-(1-aminoethyl)pyrrolidine-1-carbonyl)-4-methyl-6-(trifluoromethyl)pyridin-2-yl)thieno[3,2-b]pyridin-2-yl)methyl)-6,6-dimethyl-3-azabicyclo[3.1.0]hexane-2,4-dione trihydrochloride], for which, under setting [1], the inhibition at 1 µM is 50 to 70%.

Take `CC1(C)C2C(=O)N(Cc3cc4nccc(-c5cccn5CC5CNCCO5)c4s3)C(=O)C21` (centres unmarked) [Example 9, 6,6-dimethyl-3-((7-(1-(morpholin-2-ylmethyl)-1H-pyrrol-2-yl)thieno[3,2-b]pyridin-2-yl)methyl)-3-azabicyclo[3.1.0]hexane-2,4-dione 2,2,2-trifluoroacetate]: the inhibition at 1 µM is less than 20%.
